In brackets after ≈: the same amount, converted by molar mass.
Experiments:
[1] = molecular target: T1, Estrogen receptor (Homo sapiens, UniProt P03372); test: biochemical
T1 sequence (P03372 whole entry): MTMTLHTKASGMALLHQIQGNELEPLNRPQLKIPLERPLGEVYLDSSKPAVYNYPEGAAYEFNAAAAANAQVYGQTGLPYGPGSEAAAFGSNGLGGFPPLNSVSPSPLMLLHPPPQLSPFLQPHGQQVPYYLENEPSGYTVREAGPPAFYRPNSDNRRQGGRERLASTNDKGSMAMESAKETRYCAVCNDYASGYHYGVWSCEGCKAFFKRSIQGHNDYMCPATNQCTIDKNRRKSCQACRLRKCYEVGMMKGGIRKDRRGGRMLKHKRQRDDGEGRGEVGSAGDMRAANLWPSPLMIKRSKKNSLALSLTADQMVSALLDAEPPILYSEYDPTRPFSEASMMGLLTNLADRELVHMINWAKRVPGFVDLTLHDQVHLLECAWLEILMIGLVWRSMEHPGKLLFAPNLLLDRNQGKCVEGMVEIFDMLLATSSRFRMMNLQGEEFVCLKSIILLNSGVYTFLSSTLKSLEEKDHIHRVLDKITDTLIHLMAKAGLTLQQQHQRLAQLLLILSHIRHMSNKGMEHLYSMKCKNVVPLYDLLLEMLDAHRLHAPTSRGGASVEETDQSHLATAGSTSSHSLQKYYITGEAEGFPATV
Description: Displacement of fluorescent labelled fluormone ES2 from human recombinant GST tagged ER alpha LBD ( 282 to 595 residues) expressed in baculovirus infected insect cells measured after 20 mins by TR-FRET Lanthascreen assay

[2] = Stability of the compound assessed as parent compound remaining in buffer at pH 7.4 measured after 4 days by 1H-NMR analysis; type: physicochemical; details: read-out: Stability
[3] = molecular target: T1, Estrogen receptor
Description: Induction of ERalpha degradation in human MCF7 cells assessed as downregulation of ER alpha receptor expression measured after 18 to 22 hrs by immunofluorescence assay

[4] = in vitro; details: rat, hepatocytes
[5] = physchem; details: buffer, pH 7.4
[6] = in vitro; details: human, hepatocytes
[7] = human, plasma
Description: Fraction unbound in human plasma by equilibrium dialysis method

[8] = Half-life in rat at 0.5 mg/kg, iv; type: ADME, organism-based; details: in vivo
[9] = Acid dissociation constant, pKa of the compound in potassium chloride at 20 degC by UV absorption analysis; type: physicochemical
[10] = molecular target: T2, Cytochrome P450 1A2 (Homo sapiens, UniProt P05177); test: Inhibition of CYP1A2 (unknown origin); type: ADME
T2 sequence (P05177 whole entry): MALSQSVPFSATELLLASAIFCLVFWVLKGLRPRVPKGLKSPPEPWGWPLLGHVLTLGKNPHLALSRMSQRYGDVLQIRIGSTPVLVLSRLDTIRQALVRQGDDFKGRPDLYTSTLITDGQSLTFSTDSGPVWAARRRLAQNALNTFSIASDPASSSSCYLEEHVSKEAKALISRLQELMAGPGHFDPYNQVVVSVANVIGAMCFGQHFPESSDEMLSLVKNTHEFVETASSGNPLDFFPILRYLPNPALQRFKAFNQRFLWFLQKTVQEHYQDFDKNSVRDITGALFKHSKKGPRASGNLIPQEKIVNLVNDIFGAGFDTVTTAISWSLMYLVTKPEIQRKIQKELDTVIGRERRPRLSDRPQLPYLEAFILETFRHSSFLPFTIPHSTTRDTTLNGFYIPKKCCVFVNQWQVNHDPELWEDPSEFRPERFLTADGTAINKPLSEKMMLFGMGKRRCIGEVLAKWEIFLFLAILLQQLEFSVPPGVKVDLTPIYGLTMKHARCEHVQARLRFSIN

[11] = Plasma clearance in rat at 0.5 mg/kg, iv or 1 mg/kg, po; type: ADME, organism-based
[12] = AUC in rat at 1 mg/kg, po; type: ADME, organism-based; details: in vivo
[13] = molecular target: Cytochrome P450 2C19 (Homo sapiens, UniProt P33261); test: Inhibition of CYP2C19 (unknown origin); type: ADME
[14] = Oral bioavailability in rat at 1 mg/kg; type: ADME, organism-based; details: in vivo
[15] = Volume of distribution at steady state in rat at 0.5 mg/kg, iv or 1 mg/kg, po; type: ADME, organism-based; details: in vivo, read-out: Vdss
[16] = Stability of the compound assessed as parent compound remaining in buffer at pH 7.4 measured after 3 days by 1H-NMR analysis; type: physicochemical; details: read-out: Stability
[17] = Aqueous solubility of the compound in phosphate buffer at pH 7.4 at 25 degC after 24 hrs; type: physicochemical
[18] = Half-life in rat at 1 mg/kg, po; type: ADME, organism-based; details: in vivo
[19] = Base dissociation constant, pKa of the compound in potassium chloride at 20 degC by UV absorption analysis; type: physicochemical
[20] = molecular target: Cytochrome P450 2D6 (Homo sapiens, UniProt P10635); test: Inhibition of CYP2D6 (unknown origin); type: ADME
[21] = molecular target: Cytochrome P450 3A4 (Homo sapiens, UniProt P08684); test: Inhibition of CYP3A4 (unknown origin); type: ADME
[22] = molecular target: Cytochrome P450 2C9 (Homo sapiens, UniProt P11712); test: Inhibition of CYP2C9 (unknown origin); type: ADME
[23] = Stability of the compound assessed as parent compound remaining in buffer at pH 7.4 measured after 8 days by 1H-NMR analysis; type: physicochemical; details: read-out: Stability

Sequence of Cytochrome P450 3A4 (P08684 whole entry): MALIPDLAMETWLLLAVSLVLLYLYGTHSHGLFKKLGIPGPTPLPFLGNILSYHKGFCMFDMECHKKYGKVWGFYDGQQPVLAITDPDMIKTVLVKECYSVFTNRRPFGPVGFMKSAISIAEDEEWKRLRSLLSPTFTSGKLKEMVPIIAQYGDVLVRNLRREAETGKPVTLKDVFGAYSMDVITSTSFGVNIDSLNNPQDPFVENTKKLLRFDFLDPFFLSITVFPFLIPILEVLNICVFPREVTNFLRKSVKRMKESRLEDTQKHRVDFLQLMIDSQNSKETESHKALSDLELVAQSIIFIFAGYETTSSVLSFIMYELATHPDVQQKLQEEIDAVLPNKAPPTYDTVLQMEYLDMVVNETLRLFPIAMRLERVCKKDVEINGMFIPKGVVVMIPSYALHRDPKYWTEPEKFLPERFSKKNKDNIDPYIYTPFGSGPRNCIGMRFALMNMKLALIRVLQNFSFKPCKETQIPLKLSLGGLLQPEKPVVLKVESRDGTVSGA
Sequence of Cytochrome P450 2C9 (P11712 whole entry): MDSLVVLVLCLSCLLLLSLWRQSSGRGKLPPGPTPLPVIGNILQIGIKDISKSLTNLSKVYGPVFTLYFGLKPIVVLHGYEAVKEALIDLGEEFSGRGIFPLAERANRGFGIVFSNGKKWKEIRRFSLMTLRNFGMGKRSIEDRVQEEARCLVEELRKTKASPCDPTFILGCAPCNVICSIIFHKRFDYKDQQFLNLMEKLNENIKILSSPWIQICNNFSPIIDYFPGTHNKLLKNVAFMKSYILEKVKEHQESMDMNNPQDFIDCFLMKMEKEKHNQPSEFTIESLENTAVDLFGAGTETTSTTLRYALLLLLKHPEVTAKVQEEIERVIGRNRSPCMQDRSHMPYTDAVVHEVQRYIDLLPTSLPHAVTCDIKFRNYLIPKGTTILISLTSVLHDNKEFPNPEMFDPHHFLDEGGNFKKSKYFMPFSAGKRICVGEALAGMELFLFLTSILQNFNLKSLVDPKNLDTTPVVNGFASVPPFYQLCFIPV
Sequence of Cytochrome P450 2C19 (P33261 whole entry): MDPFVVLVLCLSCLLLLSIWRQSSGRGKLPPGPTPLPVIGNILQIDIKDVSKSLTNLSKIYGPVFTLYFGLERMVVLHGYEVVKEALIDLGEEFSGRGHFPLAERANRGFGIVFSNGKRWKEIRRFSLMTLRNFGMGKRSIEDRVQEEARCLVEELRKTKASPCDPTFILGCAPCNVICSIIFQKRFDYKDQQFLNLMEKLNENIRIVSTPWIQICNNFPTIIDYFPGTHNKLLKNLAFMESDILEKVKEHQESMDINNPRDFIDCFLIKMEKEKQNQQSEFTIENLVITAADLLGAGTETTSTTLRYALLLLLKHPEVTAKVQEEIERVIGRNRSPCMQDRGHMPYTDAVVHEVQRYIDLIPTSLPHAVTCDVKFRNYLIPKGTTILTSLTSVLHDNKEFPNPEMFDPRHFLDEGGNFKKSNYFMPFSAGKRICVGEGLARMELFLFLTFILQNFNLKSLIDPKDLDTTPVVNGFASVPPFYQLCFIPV
Sequence of Cytochrome P450 2D6 (P10635 whole entry): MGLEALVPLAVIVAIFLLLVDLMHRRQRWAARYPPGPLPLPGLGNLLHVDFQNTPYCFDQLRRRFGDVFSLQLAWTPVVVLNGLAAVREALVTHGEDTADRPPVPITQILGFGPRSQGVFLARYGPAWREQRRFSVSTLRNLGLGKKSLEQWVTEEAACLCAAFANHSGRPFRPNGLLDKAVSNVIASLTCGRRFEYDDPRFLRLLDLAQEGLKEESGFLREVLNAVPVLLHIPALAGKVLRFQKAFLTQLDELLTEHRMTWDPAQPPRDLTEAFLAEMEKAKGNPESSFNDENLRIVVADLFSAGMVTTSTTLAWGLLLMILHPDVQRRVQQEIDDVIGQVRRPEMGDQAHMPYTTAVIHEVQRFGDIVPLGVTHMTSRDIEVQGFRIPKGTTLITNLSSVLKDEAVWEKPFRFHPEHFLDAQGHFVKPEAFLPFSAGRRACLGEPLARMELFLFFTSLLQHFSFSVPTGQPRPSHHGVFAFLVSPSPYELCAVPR

Row | IC50 [1] [nM] | IC50 [3] [nM] | hepatocyte CLint [4] [µL/min/1e6 cells] | logD [5] | hepatocyte CLint [6] [µL/min/1e6 cells] | Fu [7] [%] | remaining at 192 h [23] [%] | Compound | further results
1 | 0.398 | 1.26 | 9 | 2.7 | 13 | 0.28 | – | C[C@@H]1Cc2c([nH]c3ccccc23)[C@@](C)(c2c(F)cc(/C=C/C(=O)O)cc2F)N1CC(C)(C)F | remaining at 96 h [2]: 58%
2 | 2 | 2 | 17 | 5.3 | 4 | 0.17 | 100 | CC(C)(F)CN1[C@@H]2CCC[C@@]1(c1c(F)cc(OCCN3CC(CF)C3)cc1F)c1[nH]c3ccccc3c1C2 | –
3 | – | – | – | > 4.4 | < 1 | – | 100 | C[C@@H]1Cc2c([nH]c3ccccc23)[C@@H](c2c(F)cc(OCCN3CC(CF)C3)cc2F)N1CC(C)(C)F | –
4 | 0.631 | 1.58 | 8 | 2.8 | 14 | 0.3 | 100 | CC(C)(F)CN1[C@@H]2C=CC[C@@]1(c1c(F)cc(/C=C/C(=O)O)cc1F)c1[nH]c3ccccc3c1C2 | –
5 | 1 | 0.251 | 18 | > 4.4 | – | 0.05 | 75 | C[C@@H]1Cc2c([nH]c3ccccc23)[C@@](C)(c2c(F)cc(OCCN3CC(CF)C3)cc2F)N1CC(C)(C)F | –
6 | – | – | 5 | – | 31 | 0.26 | – | C[C@@H]1Cc2c([nH]c3ccccc23)[C@@H](c2c(F)cc(/C=C/C(=O)O)cc2F)N1CC(C)(C)F [AZD-9496] | remaining at 72 h [16]: 92%

Row | Compound | IC50 [1] [nM] | IC50 [3] [nM] | hepatocyte CLint [4] [µL/min/1e6 cells] | logD [5] | hepatocyte CLint [6] [µL/min/1e6 cells] | Fu [7] [%] | remaining at 192 h [23] [%] | further results
7 | CC(C)(F)CN1[C@@H]2CCC[C@@]1(c1c(F)cc(/C=C/C(=O)O)cc1F)c1[nH]c3ccccc3c1C2 | 0.794 | 15.8 | 26 | 2.9 | 8 | 0.45 | – | half-life [8]: 2.8 h; pKa [9]: 3.8; IC50 [10]: > 30000 nM; clearance [11]: 10 mL/min/kg; AUC [12]: 2.7 µM·h; IC50 [13]: > 30000 nM; bioavailability [14]: 100%; Vd [15]: 1.6 L/kg; remaining at 72 h [16]: 100%; solubility at 24 h [17]: 734 µM (≈ 344 µg/mL); half-life [18]: 3.1 h; pKa [19]: 5.7; IC50 [20]: > 30000 nM; IC50 [21]: > 30000 nM; IC50 [22]: > 30000 nM
